Data taken from BigSolDB 2.1.

Cc1cc(C)c(C(=O)P(=O)(C(=O)c2c(C)cc(C)cc2C)c2ccccc2)c(C)c1
Conditions	solubility (mole fraction)
in acetonitrile, 295.4 K	0.00463
in acetonitrile, 303.2 K	0.00793
in acetonitrile, 308 K	0.0108
in acetonitrile, 313.3 K	0.0154
in acetonitrile, 318.1 K	0.0225
in acetonitrile, 323.2 K	0.03
in acetonitrile, 328.1 K	0.0421
in acetonitrile, 333.2 K	0.0611
in acetonitrile, 338.1 K	0.0863
in cyclohexane, 295.4 K	0.0016
in cyclohexane, 303.2 K	0.00239
in cyclohexane, 308.3 K	0.00323
in cyclohexane, 313.1 K	0.00414
in cyclohexane, 318.2 K	0.00542
in cyclohexane, 323.4 K	0.00732
in cyclohexane, 328.1 K	0.00966
in cyclohexane, 333.2 K	0.0123
in cyclohexane, 338.1 K	0.017
in cyclohexane, 343.3 K	0.0217
in ethanol, 295.4 K	0.00372
in ethanol, 303.2 K	0.00627
in ethanol, 307.2 K	0.00827
in ethanol, 313.1 K	0.0119
in ethanol, 318 K	0.0161
in ethanol, 324.1 K	0.0239
in ethanol, 328.3 K	0.0326
in ethanol, 333.2 K	0.0471
in ethyl acetate, 295.4 K	0.0178
in ethyl acetate, 303.2 K	0.0259
in ethyl acetate, 307.9 K	0.0326
in ethyl acetate, 313.2 K	0.0406
in ethyl acetate, 318.2 K	0.0508
in ethyl acetate, 323.3 K	0.064
in ethyl acetate, 328.2 K	0.0842
in ethyl acetate, 333 K	0.103
in ethyl acetate, 338.1 K	0.127
in ethyl acetate, 343.2 K	0.16
in isopropanol, 295.4 K	0.00278
in isopropanol, 305.2 K	0.0055
in isopropanol, 308.2 K	0.0068
in isopropanol, 313.3 K	0.0098
in isopropanol, 318 K	0.0137
in isopropanol, 324.1 K	0.0205
in isopropanol, 328.1 K	0.0281
in isopropanol, 333.2 K	0.04
in isopropanol, 338.3 K	0.0556
in isopropanol, 343.2 K	0.0793
in methanol, 295.4 K	0.00235
in methanol, 303.2 K	0.00434
in methanol, 308.3 K	0.00629
in methanol, 313.1 K	0.00909
in methanol, 318.2 K	0.0134
in methanol, 323.4 K	0.0195
in methanol, 328 K	0.0283
in methanol, 333.2 K	0.0427
in n-hexane, 295.4 K	0.00151
in n-hexane, 303.2 K	0.00218
in n-hexane, 308.1 K	0.00277
in n-hexane, 313.2 K	0.00323
in n-hexane, 318.1 K	0.00389
in n-hexane, 322.9 K	0.00442
in n-hexane, 328.1 K	0.00525
in n-hexane, 333.2 K	0.00635
